Test results as given in PubChem BioAssay (NCI).
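Five compound concentrations were applied to cells in 96-well plates for 48 hours; endpoints were derived by simple linear interpolation of the resulting dose-response curve. GI50 = concentration required for 50% inhibition of growth. Definition used: TGI = concentration required for complete inhibition of growth.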

Tests used:
Assay in all cases: NCI tumour cell line growth inhibition, 48 h
786-0 renal = tested on: 786-0 renal
A498 renal = tested on: A498 renal
A549 NSCLC = tested on: A549 NSCLC
ACHN renal = tested on: ACHN renal
BT-549 breast = tested on: BT-549 breast
CAKI-1 renal = tested on: CAKI-1 renal
CCRF-CEM leukemia = tested on: CCRF-CEM leukemia
COLO 205 colon = tested on: COLO 205 colon
DU-145 prostate = tested on: DU-145 prostate
EKVX NSCLC = tested on: EKVX NSCLC
HCC-2998 colon = tested on: HCC-2998 colon
HCT-116 colon = tested on: HCT-116 colon
HCT-15 colon = tested on: HCT-15 colon
HL-60(TB) leukemia = tested on: HL-60(TB) leukemia
HOP-62 NSCLC = tested on: HOP-62 NSCLC
HOP-92 NSCLC = tested on: HOP-92 NSCLC
HS 578T breast = tested on: HS 578T breast
HT29 colon = tested on: HT29 colon
IGROV1 ovarian = tested on: IGROV1 ovarian
K-562 leukemia = tested on: K-562 leukemia
KM12 colon = tested on: KM12 colon
LOX IMVI melanoma = tested on: LOX IMVI melanoma
M14 melanoma = tested on: M14 melanoma
MALME-3M melanoma = tested on: MALME-3M melanoma
MCF7 breast = tested on: MCF7 breast
MDA-MB-231 breast = tested on: MDA-MB-231 breast
MDA-MB-435 = tested on: MDA-MB-435
MOLT-4 leukemia = tested on: MOLT-4 leukemia
NCI-H226 lung = tested on: NCI-H226 lung
NCI-H23 lung = tested on: NCI-H23 lung
NCI-H460 lung = tested on: NCI-H460 lung
NCI-H522 lung = tested on: NCI-H522 lung
NCI/ADR-RES ovarian = tested on: NCI/ADR-RES ovarian
OVCAR-3 ovarian = tested on: OVCAR-3 ovarian
OVCAR-4 ovarian = tested on: OVCAR-4 ovarian
OVCAR-5 ovarian = tested on: OVCAR-5 ovarian
OVCAR-8 ovarian = tested on: OVCAR-8 ovarian
PC-3 prostate = tested on: PC-3 prostate
RPMI-8226 leukemia = tested on: RPMI-8226 leukemia
RXF 393 renal = tested on: RXF 393 renal
SF-268 CNS = tested on: SF-268 CNS
SF-295 CNS = tested on: SF-295 CNS
SF-539 CNS = tested on: SF-539 CNS
SK-MEL-2 melanoma = tested on: SK-MEL-2 melanoma
SK-MEL-28 melanoma = tested on: SK-MEL-28 melanoma
SK-MEL-5 melanoma = tested on: SK-MEL-5 melanoma
SK-OV-3 ovarian = tested on: SK-OV-3 ovarian
SN12C renal = tested on: SN12C renal
SNB-19 CNS = tested on: SNB-19 CNS
SNB-75 CNS = tested on: SNB-75 CNS
SR leukemia = tested on: SR leukemia
SW-620 colon = tested on: SW-620 colon
T-47D breast = tested on: T-47D breast
TK-10 renal = tested on: TK-10 renal
U251 CNS = tested on: U251 CNS
UACC-257 melanoma = tested on: UACC-257 melanoma
UACC-62 melanoma = tested on: UACC-62 melanoma
UO-31 renal = tested on: UO-31 renal

For `COc1cc2c3c(cc4c5c(ccc4c3c1OC)OCO5)N(CCN(C)C)C2=O`, the GI50 (786-0 renal) was 35 nM, the TGI (786-0 renal) was 654 nM and the GI50 (A498 renal) was 77.6 nM. For the same molecule, the TGI (A498 renal) was 299 nM, the GI50 (A549 NSCLC) was 13.3 nM and the TGI (A549 NSCLC) was 385 nM. For the same molecule, the GI50 (ACHN renal) was 21.5 nM, the TGI (ACHN renal) was 81.2 nM and the GI50 (BT-549 breast) was 234 nM. It also gave a TGI (BT-549 breast) of 1530 nM, a GI50 (CAKI-1 renal) of 39.3 nM and a TGI (CAKI-1 renal) of 261 nM. It also gave a GI50 (CCRF-CEM leukemia) of 28.1 nM, a TGI (CCRF-CEM leukemia) of 9.64 µM and a GI50 (COLO 205 colon) of 116 nM. It also gave a TGI (COLO 205 colon) of 935 nM, a GI50 (DU-145 prostate) of 35.4 nM and a TGI (DU-145 prostate) of 490 nM. It also gave a GI50 (EKVX NSCLC) of 104 nM, a TGI (EKVX NSCLC) of 669 nM and a GI50 (HCC-2998 colon) of 85.8 nM. The TGI (HCC-2998 colon) was 295 nM, the GI50 (HCT-116 colon) was 42.9 nM and the TGI (HCT-116 colon) was 422 nM. It also gave a GI50 (HCT-15 colon) of 34 nM, a TGI (HCT-15 colon) of 605 nM and a GI50 (HL-60(TB) leukemia) of 22.6 nM. The TGI (HL-60(TB) leukemia) was 118 nM, the GI50 (HOP-62 NSCLC) was 35.9 nM and the TGI (HOP-62 NSCLC) was 1620 nM. For the same molecule, the GI50 (HOP-92 NSCLC) was 60.9 nM, the TGI (HOP-92 NSCLC) was 561 nM and the GI50 (HS 578T breast) was 190 nM. The TGI (HS 578T breast) was 1280 nM, the GI50 (HT29 colon) was 87.1 nM and the TGI (HT29 colon) was 1260 nM. The GI50 (IGROV1 ovarian) was 47.2 nM, the TGI (IGROV1 ovarian) was 501 nM and the GI50 (K-562 leukemia) was 50 nM. It also gave a GI50 (KM12 colon) of 196 nM, a TGI (KM12 colon) of 11.7 µM and a TGI (LOX IMVI melanoma) of 49.6 nM. For the same molecule, the GI50 (M14 melanoma) was 46.6 nM, the TGI (M14 melanoma) was 400 nM and the GI50 (MALME-3M melanoma) was 64.2 nM. The TGI (MALME-3M melanoma) was 258 nM, the GI50 (MCF7 breast) was 32.2 nM and the TGI (MCF7 breast) was 579 nM. The GI50 (MDA-MB-231 breast) was 249 nM, the TGI (MDA-MB-231 breast) was 1610 nM and the GI50 (MDA-MB-435) was 170 nM. The TGI (MDA-MB-435) was 615 nM, the GI50 (MOLT-4 leukemia) was 23.6 nM and the TGI (MOLT-4 leukemia) was 1410 nM. For the same molecule, the GI50 (NCI-H226 lung) was 69.6 nM, the TGI (NCI-H226 lung) was 344 nM and the GI50 (NCI-H23 lung) was 53.8 nM. It also gave a TGI (NCI-H23 lung) of 339 nM, a GI50 (NCI-H460 lung) of 17.6 nM and a TGI (NCI-H460 lung) of 147 nM. The GI50 (NCI-H522 lung) was 101 nM, the TGI (NCI-H522 lung) was 599 nM and the GI50 (NCI/ADR-RES ovarian) was 68.5 nM. For the same molecule, the TGI (NCI/ADR-RES ovarian) was 675 nM, the GI50 (OVCAR-3 ovarian) was 199 nM and the TGI (OVCAR-3 ovarian) was 1140 nM. The GI50 (OVCAR-4 ovarian) was 309 nM, the TGI (OVCAR-4 ovarian) was 7.84 µM and the GI50 (OVCAR-5 ovarian) was 133 nM. It also gave a TGI (OVCAR-5 ovarian) of 907 nM, a GI50 (OVCAR-8 ovarian) of 59.6 nM and a TGI (OVCAR-8 ovarian) of 5.98 µM. For the same molecule, the GI50 (PC-3 prostate) was 157 nM, the TGI (PC-3 prostate) was 4.44 µM and the GI50 (RPMI-8226 leukemia) was 43.7 nM. For the same molecule, the TGI (RPMI-8226 leukemia) was 517 nM, the GI50 (RXF 393 renal) was 89.4 nM and the TGI (RXF 393 renal) was 264 nM. The GI50 (SF-268 CNS) was 104 nM, the TGI (SF-268 CNS) was 1040 nM and the GI50 (SF-295 CNS) was 33.5 nM. For the same molecule, the TGI (SF-295 CNS) was 229 nM, the GI50 (SF-539 CNS) was 110 nM and the TGI (SF-539 CNS) was 411 nM. The GI50 (SK-MEL-2 melanoma) was 313 nM, the TGI (SK-MEL-2 melanoma) was 804 nM and the GI50 (SK-MEL-28 melanoma) was 182 nM. The TGI (SK-MEL-28 melanoma) was 676 nM, the GI50 (SK-MEL-5 melanoma) was 92.4 nM and the TGI (SK-MEL-5 melanoma) was 225 nM. For the same molecule, the GI50 (SK-OV-3 ovarian) was 74.6 nM, the TGI (SK-OV-3 ovarian) was 600 nM and the GI50 (SN12C renal) was 31.8 nM. It also gave a TGI (SN12C renal) of 378 nM, a GI50 (SNB-19 CNS) of 38.9 nM and a TGI (SNB-19 CNS) of 2610 nM. The GI50 (SNB-75 CNS) was 71.1 nM, the TGI (SNB-75 CNS) was 583 nM and the GI50 (SR leukemia) was 22.5 nM. It also gave a GI50 (SW-620 colon) of 36.3 nM, a TGI (SW-620 colon) of 1330 nM and a GI50 (T-47D breast) of 64.9 nM. It also gave a TGI (T-47D breast) of 3.05 µM, a GI50 (TK-10 renal) of 170 nM and a TGI (TK-10 renal) of 702 nM. The GI50 (U251 CNS) was 38.9 nM, the TGI (U251 CNS) was 1430 nM and the GI50 (UACC-257 melanoma) was 166 nM. It also gave a TGI (UACC-257 melanoma) of 596 nM, a GI50 (UACC-62 melanoma) of 56.7 nM and a TGI (UACC-62 melanoma) of 229 nM. For the same molecule, the GI50 (UO-31 renal) was 34.3 nM and the TGI (UO-31 renal) was 201 nM.
